Measurements published in ChEMBL document CHEMBL1201862, “PubChem BioAssay data set” (2004).
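These data come from cells grown in 96-well plates and exposed to compound for 48 hours at five concentrations. GI50 is the concentration that inhibits growth by half.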 Calls of active or inactive are those of the source. No stated cut-off is given here; in the data, active = GI50 up to about 1.1 µM and inactive = higher.

Columns and labels:
Assay in all cases: inhibition of tumour cell growth, NCI panel, 48 h
Hs-578T = tested on: Hs-578T
RXF 393 = tested on: RXF 393
SR = tested on: SR
NCI-H522 = tested on: NCI-H522
LOX IMVI = tested on: LOX IMVI
Malme-3M = tested on: Malme-3M
IGROV-1 = tested on: IGROV-1
SW-620 = tested on: SW-620
CAKI-1 = tested on: CAKI-1
COLO 205 = tested on: COLO 205
A549 = tested on: A549
HCT-116 = tested on: HCT-116
KM12 = tested on: KM12
SNB-19 = tested on: SNB-19
ACHN = tested on: ACHN
UACC-257 = tested on: UACC-257
DU-145 = tested on: DU-145
SN12C = tested on: SN12C
MDA-MB-231 = tested on: MDA-MB-231

Compound | GI50 (Hs-578T) | GI50 (RXF 393) | GI50 (SR) | GI50 (NCI-H522) | GI50 (LOX IMVI) | GI50 (Malme-3M) | GI50 (IGROV-1) | GI50 (SW-620) | GI50 (CAKI-1) | GI50 (COLO 205) | GI50 (A549) | GI50 (HCT-116) | GI50 (KM12) | GI50 (SNB-19) | GI50 (ACHN) | GI50 (UACC-257) | GI50 (DU-145) | GI50 (SN12C) | GI50 (MDA-MB-231)
OCCCNCc1ccccn1 | > 100 µM (inactive) | > 100 µM (inactive) | > 100 µM (inactive) | > 100 µM (inactive) | > 100 µM (inactive) | > 100 µM (inactive) | > 100 µM (inactive) | > 100 µM (inactive) | > 100 µM (inactive) | > 100 µM (inactive) | > 100 µM (inactive) | > 100 µM (inactive) | > 100 µM (inactive) | > 100 µM (inactive) | > 100 µM (inactive) | > 100 µM (inactive) | > 100 µM (inactive) | > 100 µM (inactive) | > 100 µM (inactive)
CN(CC(=O)O)Cc1c[nH]c2ccccc12 | > 100 µM (inactive) | > 100 µM (inactive) | > 100 µM (inactive) | > 100 µM (inactive) | > 100 µM (inactive) | > 100 µM (inactive) | > 100 µM (inactive) | > 100 µM (inactive) | > 100 µM (inactive) | > 100 µM (inactive) | > 100 µM (inactive) | > 100 µM (inactive) | > 100 µM (inactive) | > 100 µM (inactive) | > 100 µM (inactive) | > 100 µM (inactive) | > 100 µM (inactive) | > 100 µM (inactive) | > 100 µM (inactive)
CC(=O)c1c(SCCN2CCOCC2)n(-c2ccccc2)c(=S)n(-c2ccccc2)c1=O | 39.7 µM (inactive) | 11.9 µM (inactive) | 28.3 µM (inactive) | 21.8 µM (inactive) | 8.39 µM (inactive) | 28.2 µM (inactive) | 16.9 µM (inactive) | 20.7 µM (inactive) | 24.3 µM (inactive) | 21.5 µM (inactive) | 35.2 µM (inactive) | 16.1 µM (inactive) | > 39.7 µM (inactive) | > 40.9 µM (inactive) | 14.8 µM (inactive) | 15.4 µM (inactive) | 8.99 µM (inactive) | 16.9 µM (inactive) | 19.1 µM (inactive)
COC(=O)CCCCC/C(=C\C(=O)C(Cl)(Cl)Cl)OC | 26.4 µM (inactive) | 16.7 µM (inactive) | 18.1 µM (inactive) | 16.6 µM (inactive) | 20.9 µM (inactive) | 21.1 µM (inactive) | 12.7 µM (inactive) | 31.7 µM (inactive) | 30.8 µM (inactive) | 26.5 µM (inactive) | 45.6 µM (inactive) | 20.2 µM (inactive) | 26.4 µM (inactive) | 48.2 µM (inactive) | 39.7 µM (inactive) | 21.8 µM (inactive) | 25.5 µM (inactive) | 33.5 µM (inactive) | 80 µM (inactive)
CC(C)c1ccc(/C=C2/C=C(c3ccc4ccccc4c3)OC2=O)cc1 | > 75.2 µM (inactive) | > 81.1 µM (inactive) | 5.94 µM (inactive) | 10.5 µM (inactive) | 40.2 µM (inactive) | 15.8 µM (inactive) | > 85.9 µM (inactive) | > 86.5 µM (inactive) | > 82.4 µM (inactive) | 27.9 µM (inactive) | > 89.7 µM (inactive) | 68.4 µM (inactive) | 62.1 µM (inactive) | > 100 µM (inactive) | 38.4 µM (inactive) | 21 µM (inactive) | > 100 µM (inactive) | 57.1 µM (inactive) | 99.8 µM (inactive)
CCCCCCCc1c(Cl)nc(Cl)nc1Cl | 6.28 µM (inactive) | 2.47 µM (inactive) | 0.604 µM (active) | 1.74 µM (inactive) | 1.45 µM (inactive) | 3.01 µM (inactive) | 2.29 µM (inactive) | 2.68 µM (inactive) | 2.38 µM (inactive) | 5.25 µM (inactive) | 16.9 µM (inactive) | 2.63 µM (inactive) | 11.2 µM (inactive) | 11.2 µM (inactive) | 8.61 µM (inactive) | 10.4 µM (inactive) | 14.3 µM (inactive) | 2.05 µM (inactive) | 3.52 µM (inactive)
CC(=O)N(C(C)=O)n1c(Cc2ccc(Cl)cc2)n[nH]c1=O | > 100 µM (inactive) | 28.5 µM (inactive) | > 100 µM (inactive) | > 100 µM (inactive) | > 88.5 µM (inactive) | > 52.7 µM (inactive) | > 100 µM (inactive) | > 100 µM (inactive) | > 100 µM (inactive) | > 100 µM (inactive) | > 100 µM (inactive) | > 100 µM (inactive) | > 100 µM (inactive) | > 100 µM (inactive) | > 100 µM (inactive) | > 100 µM (inactive) | > 100 µM (inactive) | > 100 µM (inactive) | > 100 µM (inactive)
CSc1nc(SC)c2c(CO)c(Br)n(Cc3ccccc3)c2n1 | 19.1 µM (inactive) | 28 µM (inactive) | > 100 µM (inactive) | 14.2 µM (inactive) | 25.3 µM (inactive) | 52.4 µM (inactive) | 16 µM (inactive) | > 100 µM (inactive) | 10 µM (inactive) | > 100 µM (inactive) | 29.8 µM (inactive) | 26.4 µM (inactive) | 70 µM (inactive) | 29 µM (inactive) | 15.3 µM (inactive) |  | 25.9 µM (inactive) | 35.4 µM (inactive) | 17.7 µM (inactive)
COC(=O)/C=C\C(C#N)(C#N)/N=C/c1ccc(C)s1 | 21.8 µM (inactive) | 1.46 µM (inactive) | 2.08 µM (inactive) | 0.713 µM (active) | 1.67 µM (inactive) | 1.6 µM (inactive) | 2 µM (inactive) | 0.668 µM (active) | 1.94 µM (inactive) | 1.43 µM (inactive) | 18.4 µM (inactive) | 1.32 µM (inactive) | 13.1 µM (inactive) | 18.7 µM (inactive) | 1.67 µM (inactive) | 2.73 µM (inactive) | 4.48 µM (inactive) | 2.29 µM (inactive) | 5.61 µM (inactive)
Cc1cc2c(c(O)c1-c1c(C)cc(O)c3c1C(=O)C=CC3=O)C(=O)C=CC2=O | 3.07 µM (inactive) | 0.757 µM (active) | 0.043 µM (active) | 0.136 µM (active) | 1.11 µM (active) | 0.342 µM (active) | 2.26 µM (inactive) | 1.59 µM (inactive) | 0.631 µM (active) | 0.279 µM (active) | 17.7 µM (inactive) | 1.21 µM (inactive) | 10.3 µM (inactive) | 18 µM (inactive) | 0.388 µM (active) | 1.62 µM (inactive) | 2.19 µM (inactive) | 2.37 µM (inactive) | 2 µM (inactive)
CSC1=C(C#N)C(=O)N(c2ccc(C)cc2)C(=O)C1C#N (configuration not stated) | 28.6 µM (inactive) | > 100 µM (inactive) | > 100 µM (inactive) | 29.7 µM (inactive) | > 100 µM (inactive) | > 100 µM (inactive) | > 100 µM (inactive) | > 100 µM (inactive) | 30.9 µM (inactive) | > 100 µM (inactive) | > 100 µM (inactive) | > 100 µM (inactive) | > 100 µM (inactive) | > 100 µM (inactive) | > 100 µM (inactive) | > 100 µM (inactive) | > 100 µM (inactive) | > 100 µM (inactive) | > 100 µM (inactive)
COc1ccc(Cn2c(=O)c(OC)c(C)c3cc4ccccc4cc32)cc1 | 40.9 µM (inactive) | 34.4 µM (inactive) | 21.3 µM (inactive) | 21.4 µM (inactive) | 18.4 µM (inactive) | 21.1 µM (inactive) | 21.4 µM (inactive) | 32.5 µM (inactive) | 37.3 µM (inactive) | 20.1 µM (inactive) | 34.4 µM (inactive) | 18.6 µM (inactive) | 26.5 µM (inactive) | 48.1 µM (inactive) | 34.6 µM (inactive) | 2.99 µM (inactive) | 35.2 µM (inactive) | 19.8 µM (inactive) | 22.7 µM (inactive)
Cc1nc2ccc(S(=O)(=O)Nc3ccccn3)cc2c(=O)n1NS(=O)(=O)c1ccccn1 | > 100 µM (inactive) | > 100 µM (inactive) | > 100 µM (inactive) | > 100 µM (inactive) | > 100 µM (inactive) | > 100 µM (inactive) | > 100 µM (inactive) | > 100 µM (inactive) | > 100 µM (inactive) | > 100 µM (inactive) |  | > 100 µM (inactive) | > 100 µM (inactive) | > 100 µM (inactive) | > 100 µM (inactive) | > 100 µM (inactive) | > 100 µM (inactive) | > 100 µM (inactive) | > 100 µM (inactive)
CC(C#N)(NO)C(C)(C#N)NO (configuration not stated) | > 100 µM (inactive) | > 100 µM (inactive) | > 100 µM (inactive) | > 100 µM (inactive) | > 100 µM (inactive) | > 100 µM (inactive) | > 100 µM (inactive) | > 100 µM (inactive) | > 100 µM (inactive) | 81.1 µM (inactive) | > 100 µM (inactive) | > 100 µM (inactive) | > 100 µM (inactive) | > 100 µM (inactive) |  | > 100 µM (inactive) | > 100 µM (inactive) | > 100 µM (inactive) | > 100 µM (inactive)
Oc1ccc(-c2nc3ccccc3s2)cc1 | 37.7 µM (inactive) | 24 µM (inactive) | 32.7 µM (inactive) | 15.5 µM (inactive) | 21.4 µM (inactive) | 47.3 µM (inactive) | 25.7 µM (inactive) | 65.5 µM (inactive) | 29.2 µM (inactive) | 45.1 µM (inactive) | 41.3 µM (inactive) | 22.4 µM (inactive) | 21.1 µM (inactive) | 55.1 µM (inactive) | 45.8 µM (inactive) | 31 µM (inactive) | 33.1 µM (inactive) | 38 µM (inactive) | 29.2 µM (inactive)
